PubChem BioAssay AID248 (DTP/NCI, 2004)
Values joined by “and” are separate entries in the source; they are usually repeats but may differ in a detail not shown here. Identical values can stand only once. Toxic doses and inconclusive results are not listed. No stated cut-off is given here; in the data, active means T/C of 150% or more; inactive means T/C below 125%.

Test system: L1210 leukemia ip in BDF1 mice, survival T/C
Assay: NCI In Vivo Anticancer Drug Screen. Data for tumor model L1210 Leukemia (intraperitoneal) in B6D2F1 (BDF1) mice
Conditions: endpoint: mean survival time, higher = longer survival
In short: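 Antitumor effect is assessed in tumor-bearing animals. Survival in the compound arm is compared with a vehicle-dosed control arm and expressed as their quotient.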

[1] = dose: 100.0 mg/kg/injection, schedule: Q01DX001 (ip), vehicle: carboxymethylcellulose (CMC)
[2] = dose: 200.0 mg/kg/injection, schedule: Q01DX001 (ip), vehicle: carboxymethylcellulose (CMC)
[3] = dose: 400.0 mg/kg/injection, schedule: Q01DX001 (ip), vehicle: carboxymethylcellulose (CMC)
[4] = dose: 100.0 mg/kg/injection, schedule: Q04DX003 (ip), vehicle: saline with Tween-80
[5] = dose: 200.0 mg/kg/injection, schedule: Q04DX003 (ip), vehicle: saline with Tween-80
[6] = dose: 400.0 mg/kg/injection, schedule: Q04DX003 (ip), vehicle: saline with Tween-80
[7] = dose: 100.0 mg/kg/injection, schedule: Q01DX009 (ip), vehicle: Klucel (hydroxypropylcellulose) (HPC)
[8] = dose: 200.0 mg/kg/injection, schedule: Q01DX009 (ip), vehicle: Klucel (hydroxypropylcellulose) (HPC)
[9] = dose: 400.0 mg/kg/injection, schedule: Q01DX009 (ip), vehicle: Klucel (hydroxypropylcellulose) (HPC)
[10] = dose: 100.0 mg/kg/injection, schedule: Q01DX009 (ip), vehicle: saline with Tween-80
[11] = dose: 200.0 mg/kg/injection, schedule: Q01DX009 (ip), vehicle: saline with Tween-80
[12] = dose: 50.0 mg/kg/injection, schedule: Q01DX001 (ip), vehicle: carboxymethylcellulose (CMC)
[13] = dose: 100.0 mg/kg/injection, schedule: Q04DX003 (ip), vehicle: Klucel (hydroxypropylcellulose) (HPC)
[14] = dose: 200.0 mg/kg/injection, schedule: Q04DX003 (ip), vehicle: Klucel (hydroxypropylcellulose) (HPC)
[15] = dose: 100.0 mg/kg/injection, schedule: Q01DX001 (ip), vehicle: saline
[16] = dose: 200.0 mg/kg/injection, schedule: Q01DX001 (ip), vehicle: saline
[17] = dose: 400.0 mg/kg/injection, schedule: Q01DX001 (ip), vehicle: saline
[18] = dose: 75.0 mg/kg/injection, schedule: Q01DX001 (ip), vehicle: saline
[19] = dose: 150.0 mg/kg/injection, schedule: Q01DX001 (ip), vehicle: saline

Measured: T/C

CCCCCCCCC(=O)N(CC(C)C)CC(C)C
inactive: [1] 93 % of control | dose: 100.0 mg/kg/injection, schedule: Q01DX009 (ip), vehicle: carboxymethylcellulose (CMC) 101 % of control | dose: 100.0 mg/kg/injection, schedule: Q04DX002 (ip), vehicle: carboxymethylcellulose (CMC) 94 % of control | dose: 100.0 mg/kg/injection, schedule: Q04DX003 (ip), vehicle: carboxymethylcellulose (CMC) 101 % of control | [2] 91 % of control | dose: 200.0 mg/kg/injection, schedule: Q01DX009 (ip), vehicle: carboxymethylcellulose (CMC) 101 % of control and 106 % of control | dose: 200.0 mg/kg/injection, schedule: Q04DX002 (ip), vehicle: carboxymethylcellulose (CMC) 102 % of control | dose: 200.0 mg/kg/injection, schedule: Q04DX003 (ip), vehicle: carboxymethylcellulose (CMC) 101 % of control | [3] 93 % of control | dose: 400.0 mg/kg/injection, schedule: Q04DX002 (ip), vehicle: carboxymethylcellulose (CMC) 97 % of control | dose: 400.0 mg/kg/injection, schedule: Q04DX003 (ip), vehicle: carboxymethylcellulose (CMC) 104 % of control

CCOC(=O)NP(=O)(N1CC1(C)C)N1CC1(C)C (stereo unspecified)
active: dose: 250.0 mg/kg/injection, schedule: Q01DX010 (ip), vehicle: saline 151 % of control and 157 % of control
inactive: dose: 62.5 mg/kg/injection, schedule: Q01DX010 (ip), vehicle: saline 115 % of control and 120 % of control | dose: 125.0 mg/kg/injection, schedule: Q01DX010 (ip), vehicle: saline 117 % of control

O=c1[nH]cnc2c1ncn2Cc1ccc([N+](=O)[O-])cc1
inactive: dose: 100.0 mg/kg/injection, schedule: Q01DX001 (ip), vehicle: other 96 % of control | [4] 102 % of control | dose: 200.0 mg/kg/injection, schedule: Q01DX001 (ip), vehicle: other 98 % of control | [5] 96 % of control | [6] 94 % of control

Cc1ccc(Cl)cc1NC(=O)c1ccc(Cl)cc1
inactive: [7] 99 % of control | dose: 100.0 mg/kg/injection, schedule: Q04DX003 (ip), vehicle: saline 114 % of control | [8] 89 % of control | dose: 200.0 mg/kg/injection, schedule: Q04DX003 (ip), vehicle: saline 97 % of control | [9] 93 % of control | dose: 400.0 mg/kg/injection, schedule: Q04DX003 (ip), vehicle: saline 119 % of control

C/C(=N/N=C(N)N)c1ccc(F)cc1
inactive: dose: 15.0 mg/kg/injection, schedule: Q01DX Z (ip), vehicle: carboxymethylcellulose (CMC) 95 % of control | dose: 15.0 mg/kg/injection, schedule: Q01DX Z (oral), vehicle: carboxymethylcellulose (CMC) 113 % of control | dose: 30.0 mg/kg/injection, schedule: Q01DX Z (ip), vehicle: carboxymethylcellulose (CMC) 100 % of control | dose: 30.0 mg/kg/injection, schedule: Q01DX Z (oral), vehicle: carboxymethylcellulose (CMC) 98 % of control | dose: 60.0 mg/kg/injection, schedule: Q01DX Z (oral), vehicle: carboxymethylcellulose (CMC) 103 % of control

O=C(/C=C/c1ccccc1)c1ccc(Cl)c(Cl)c1
inactive: dose: 50.0 mg/kg/injection, schedule: Q01DX009 (ip), vehicle: saline with Tween-80 101 % of control | [10] 101 % of control | [11] 97 % of control

O=C1c2ccccc2-c2cc(Br)c([N+](=O)[O-])cc21
inactive: [12] 93 % of control | [1] 96 % of control | [2] 86 % of control | [3] 88 % of control

CC(C)CCCC(C)C1CCC2C3CC=C4CC(OCCCl)CCC4(C)C3CCC12C (stereo unspecified)
inactive: [4] 96 % of control | [5] 96 % of control | [6] 93 % of control

O=[N+]([O-])c1cc([As](=O)(O)O)ccc1Cl
inactive: dose: 50.0 mg/kg/injection, schedule: Q01DX009 (ip), vehicle: Klucel (hydroxypropylcellulose) (HPC) 97 % of control | [7] 97 % of control | [13] 100 % of control | [14] 104 % of control

NC(N)=NNO
inactive: [15] 88 % of control | [16] 95 % of control | [17] 101 % of control

N#CC1(C#N)OC1c1ccccc1Cl (stereo unspecified)
inactive: dose: 10.0 mg/kg/injection, schedule: Q04DX002 (ip), vehicle: Klucel (hydroxypropylcellulose) (HPC) 100 % of control | dose: 20.0 mg/kg/injection, schedule: Q04DX002 (ip), vehicle: Klucel (hydroxypropylcellulose) (HPC) 100 % of control

CC[CH2][Ge]([CH2]CC)([CH2]CC)[O][Ge]([CH2]CC)([CH2]CC)[CH2]CC
inactive: [12] 96 % of control | dose: 50.0 mg/kg/injection, schedule: Q01DX001 (ip), vehicle: saline 95 % of control | [1] 100 % of control | [15] 101 % of control | [2] 100 % of control | [16] 104 % of control | [3] 105 % of control

COC(=O)CCNc1ccccc1C(=O)OC
inactive: [12] 100 % of control | [1] 107 % of control | [2] 113 % of control | [3] 100 % of control

O=c1ccc(=O)n(-c2ccccc2)[nH]1
inactive: [7] 95 % of control | [13] 92 % of control | [8] 93 % of control | [14] 106 % of control | dose: 267.0 mg/kg/injection, schedule: Q04DX003 (ip), vehicle: Klucel (hydroxypropylcellulose) (HPC) 110 % of control | [9] 95 % of control | dose: 400.0 mg/kg/injection, schedule: Q04DX003 (ip), vehicle: Klucel (hydroxypropylcellulose) (HPC) 104 % of control | dose: 600.0 mg/kg/injection, schedule: Q04DX003 (ip), vehicle: Klucel (hydroxypropylcellulose) (HPC) 105 % of control

C[n+]1cc(-c2ccccc2)cc2ccccc21
inactive: [18] 97 % of control

O=C(CBr)OCS(=O)(=O)O
inactive: [18] 102 % of control | [19] 96 % of control | dose: 300.0 mg/kg/injection, schedule: Q01DX001 (ip), vehicle: saline 100 % of control

COc1ccc(-c2cc(=O)c3c(O)c(OC)c(O)cc3o2)cc1
inactive: dose: 20.0 mg/kg/injection, schedule: Q01DX Z (ip), vehicle: saline 101 % of control | dose: 40.0 mg/kg/injection, schedule: Q01DX Z (ip), vehicle: saline 108 % of control | dose: 80.0 mg/kg/injection, schedule: Q01DX Z (ip), vehicle: saline 95 % of control

CCN=C(c1ccc(NC(=O)c2ccc(C(=O)Nc3ccc(C(=NCC)N(CC)C(=O)C(F)(F)C(F)(F)C(F)(F)F)cc3)cc2)cc1)N(CC)C(=O)C(F)(F)C(F)(F)C(F)(F)F
inactive: dose: 1.5 mg/kg/injection, schedule: Q01DX015 (ip), vehicle: methylcellulose (MC) 96 % of control | dose: 3.0 mg/kg/injection, schedule: Q01DX015 (ip), vehicle: methylcellulose (MC) 113 % of control | dose: 12.0 mg/kg/injection, schedule: Q01DX015 (ip), vehicle: methylcellulose (MC) 124 % of control
active: dose: 7.5 mg/kg/injection, schedule: Q01DX015 (ip), vehicle: methylcellulose (MC) 153 % of control

O=CNc1ccc(C(=O)O)cc1
inactive: [10] 95 % of control | [11] 100 % of control | dose: 400.0 mg/kg/injection, schedule: Q01DX009 (ip), vehicle: saline with Tween-80 95 % of control

CCCCNC(=S)SCCC(=O)O
inactive: dose: 100.0 mg/kg/injection, schedule: Q04DX002 (ip), vehicle: saline with Tween-80 100 % of control | dose: 200.0 mg/kg/injection, schedule: Q04DX002 (ip), vehicle: saline with Tween-80 104 % of control | dose: 400.0 mg/kg/injection, schedule: Q04DX002 (ip), vehicle: saline with Tween-80 102 % of control

CCC[CH2][Sn]1([CH2]CCC)[O]C(=O)C2C(C(=O)[O]1)C1(Cl)C(Cl)=C(Cl)C2(Cl)C1(Cl)Cl (stereo unspecified)
inactive: dose: 44.0 mg/kg/injection, schedule: Q01DX001 (ip), vehicle: saline 98 % of control | dose: 45.0 mg/kg/injection, schedule: Q01DX001 (ip), vehicle: saline 97 % of control | dose: 67.0 mg/kg/injection, schedule: Q01DX001 (ip), vehicle: saline 95 % of control and 101 % of control | [15] 98 % of control and 103 % of control | [19] 123 % of control

CN(Cc1ccc(Cl)cc1)C(=O)NCCCCCCNC(=O)N(C)Cc1ccc(Cl)cc1
inactive: [7] 100 % of control | [8] 94 % of control | [9] 92 % of control

CC1(C)S[C@@H]2[C@H](NC(=O)Cc3ccc([N+](=O)[O-])cc3)CN2[C@H]1N=C=O
inactive: [15] 93 % of control | [16] 91 % of control | [17] 98 % of control
